Some test systems named below: SR leukemia; IGROV1 ovarian; MDA-MB-435; EKVX NSCLC; DU-145 prostate; SK-MEL-2 melanoma; RPMI-8226 leukemia; BT-549 breast; NCI-H460 lung; CAKI-1 renal; RXF 393 renal; HOP-62 NSCLC.
What all share (test): DTP human tumour cell line panel, 48 h

Eleven molecules from PubChem BioAssay (NCI) can be followed below.

By TGI is commonly meant the concentration at which net growth stops. High values mean lower sensitivity of the cells, low ones greater sensitivity of the cells.

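Grown in 96-well plates, cells were treated for 48 hours with each compound at five concentrations. Insufficient inhibition: endpoint recorded as highest concentration tested. TGI: total growth inhibition.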 A value given as a limit tells only on which side of the number the result lay.

Turning to `CO[C@H]1[C@@H](O)[C@@H](C)O[C@@H](O[C@H]2CC[C@@]3(C)[C@H](CC[C@@H]4[C@@H]3CC[C@]3(C)[C@@H](C5=CC(=O)OC5)[C@@H](OC(C)=O)C[C@]43O)C2)[C@@H]1O`, the TGI in the test on SR leukemia was more than 50 µM; in the test with IGROV1 ovarian, 0.772 µM; with MDA-MB-435, 0.407 µM; in the test with EKVX NSCLC it was 0.0568 µM; in the test with DU-145 prostate it was 0.0589 µM; in the test with SK-MEL-2 melanoma it was 0.345 µM. For the same molecule, the TGI was more than 16.2 µM in the test with RPMI-8226 leukemia; 0.161 µM with BT-549 breast; 0.0617 µM in the test with NCI-H460 lung; 0.0719 µM in the test on CAKI-1 renal; 0.0523 µM with RXF 393 renal; 0.0878 µM in the test on HOP-62 NSCLC.

For the molecule `N#CC(NNC(=O)Cc1ccccc1)c1ccccc1O` (stereo unspecified), the TGI in the test on SR leukemia was 70.7 µM; in the test with IGROV1 ovarian, more than 100 µM; with MDA-MB-435, more than 100 µM; in the test with EKVX NSCLC it was more than 100 µM; in the test on DU-145 prostate it was more than 74.6 µM; in the test with SK-MEL-2 melanoma, more than 100 µM. For the same molecule, the TGI in the test on RPMI-8226 leukemia was more than 100 µM; in the test with BT-549 breast, more than 100 µM; with NCI-H460 lung, more than 100 µM; in the test with CAKI-1 renal it was more than 89.9 µM; with RXF 393 renal it was more than 100 µM; with HOP-62 NSCLC, more than 70.6 µM.

Turning to `O=C(C(=O)N1CCc2ccccc21)c1c[nH]c2ccccc12`, the TGI in the test with SR leukemia, in the test with IGROV1 ovarian, with MDA-MB-435, in the test on EKVX NSCLC, in the test on DU-145 prostate and in the test on SK-MEL-2 melanoma was more than 10 µM in each case. The TGI in the test with RPMI-8226 leukemia, in the test on BT-549 breast, with NCI-H460 lung, in the test with CAKI-1 renal, in the test with RXF 393 renal and in the test with HOP-62 NSCLC was more than 10 µM in each case.

For `COC(CN(C(=O)c1ccccc1)C1CCC2(SCCS2)c2[nH]c3ccccc3c21)OC` (stereo unspecified), the TGI was more than 100 µM in the test with SR leukemia; more than 100 µM in the test on IGROV1 ovarian; 70.2 µM in the test on MDA-MB-435; more than 100 µM with EKVX NSCLC; more than 100 µM in the test with DU-145 prostate; more than 100 µM in the test with SK-MEL-2 melanoma. Also, the TGI in the test with RPMI-8226 leukemia, in the test on BT-549 breast, with NCI-H460 lung, in the test on CAKI-1 renal, in the test on RXF 393 renal and in the test on HOP-62 NSCLC was more than 100 µM in each case.

Turning to `Clc1ccc(Cl)c(Nc2ccnc(SCc3ccccc3)n2)c1`, the TGI in the test with SR leukemia, in the test with IGROV1 ovarian, in the test on MDA-MB-435, in the test with EKVX NSCLC, in the test with DU-145 prostate and in the test on SK-MEL-2 melanoma was more than 100 µM each time. The TGI in the test with RPMI-8226 leukemia was more than 100 µM; with BT-549 breast, more than 100 µM; with NCI-H460 lung it was more than 100 µM; in the test with CAKI-1 renal, more than 100 µM; in the test with RXF 393 renal, 79.4 µM; in the test on HOP-62 NSCLC, more than 100 µM.

Consider `CC(C)=CCS(=O)c1ccccc1NC1=CC(=O)CC(C)(C)C1` (stereo unspecified), for which the TGI in the test on SR leukemia, in the test on IGROV1 ovarian, in the test with MDA-MB-435, with EKVX NSCLC, in the test on DU-145 prostate and in the test with SK-MEL-2 melanoma was more than 100 µM each time. Also, the TGI in the test with RPMI-8226 leukemia is more than 100 µM; with BT-549 breast, more than 100 µM; in the test on NCI-H460 lung, more than 100 µM; in the test on CAKI-1 renal it was more than 100 µM; in the test with RXF 393 renal, more than 100 µM; in the test on HOP-62 NSCLC it was 0.855 µM.

On to `Cc1cc(C)cc(C(=N)c2ccccc2Cc2cccc3ccccc23)c1`, for which the total growth inhibition concentration (TGI) in the test with SR leukemia is 41.3 µM; in the test on IGROV1 ovarian it was 34.9 µM; in the test on MDA-MB-435, 32.9 µM; in the test with EKVX NSCLC it was 46.4 µM; with DU-145 prostate it was 29.7 µM; in the test on SK-MEL-2 melanoma, more than 100 µM. The TGI in the test with RPMI-8226 leukemia is 67 µM; in the test with BT-549 breast it was more than 100 µM; in the test on NCI-H460 lung, 29.5 µM; with CAKI-1 renal, 72.9 µM; with RXF 393 renal it was 31.9 µM; in the test on HOP-62 NSCLC, 32.2 µM.

Turning to `O=C(CC(c1ccccc1)N1CCCCC1)c1ccccc1` (stereo unspecified), the TGI in the test on SR leukemia was 6.15 µM; with IGROV1 ovarian, 29.1 µM; with MDA-MB-435, 27.4 µM; with EKVX NSCLC it was 34.5 µM; in the test on DU-145 prostate it was 32.3 µM; with SK-MEL-2 melanoma, 35.4 µM. Besides, the TGI with RPMI-8226 leukemia is 5.23 µM; with BT-549 breast, 34.8 µM; in the test with NCI-H460 lung, 26.6 µM; with CAKI-1 renal, 30.3 µM; in the test on RXF 393 renal, 33.6 µM; with HOP-62 NSCLC it was 33.9 µM.

For the molecule `O=C(O)c1nc(-c2ccccn2)c(-c2ccccn2)nc1C(=O)O`, the TGI in the test with SR leukemia was 9.91 µM; in the test with IGROV1 ovarian it was 21 µM; with MDA-MB-435, 30.8 µM; in the test on EKVX NSCLC, 13.6 µM; in the test with DU-145 prostate, 12.1 µM; in the test with SK-MEL-2 melanoma it was 29.9 µM. For the same molecule, the TGI in the test with RPMI-8226 leukemia is more than 100 µM; in the test on BT-549 breast, 37.6 µM; in the test on NCI-H460 lung it was 4.85 µM; in the test with CAKI-1 renal it was 8.5 µM; with RXF 393 renal it was 9.71 µM; with HOP-62 NSCLC, 15.3 µM.

For the molecule `CCN1c2nc3ccccc3nc2N(CC)c2nc3ccccc3nc21`, the TGI in the test with SR leukemia, in the test with IGROV1 ovarian, in the test on MDA-MB-435, in the test with EKVX NSCLC, with DU-145 prostate and with SK-MEL-2 melanoma was more than 100 µM each time. Moreover, the TGI with RPMI-8226 leukemia, in the test on BT-549 breast, in the test on NCI-H460 lung, with CAKI-1 renal and in the test on RXF 393 renal was more than 100 µM throughout.

Regarding `COc1cccc(OC)c1/C=C1\OC(=O)c2cccc(OC)c21`, the TGI in the test on SR leukemia was more than 24.3 µM; with IGROV1 ovarian, more than 100 µM; with MDA-MB-435 it was 2.12 µM; in the test with EKVX NSCLC it was more than 100 µM; in the test with DU-145 prostate it was more than 100 µM; in the test on SK-MEL-2 melanoma, more than 30.1 µM. For the same molecule, the TGI in the test with RPMI-8226 leukemia is more than 100 µM; in the test on BT-549 breast, more than 90.6 µM; in the test on NCI-H460 lung, more than 100 µM; in the test with CAKI-1 renal, more than 75.2 µM; in the test on RXF 393 renal, 65 µM; in the test on HOP-62 NSCLC it was 56 µM.
